Laboratory results taken from patent US12404249B2, “Heterocyclic derivatives and use thereof” (C&C RESEARCH LABORATORIES, priority 2018, dated 2025).

Tests used:
STAT3 = biological target: T1, STAT3 (Homo sapiens, UniProt P40763); experiment: STAT3 activation inhibition assay (reporter gene assay, LNcaP stable cell line, IL-6 stimulated); assay type: cell-based; settings: LNcaP stable cell line [plasmid STAT3-TA-luc], IL-6 10 ng/mL, 48 hours, luciferase activity; read-out: IC50 (μM) pSTAT3
T1 construct: endogenous in cells; host or cells: LNCaP (human prostate cancer) stably carrying pSTAT3-TA-luc reporter plasmid
Description: Cancer cell lines used for evaluating the compounds of the Examples were purchased from ATCC (American Type Culture Collection) or KCLB (Korean Cell Line Bank), and cultured according to the vendor's recommendation. The human prostate cancer cell line stably expressing the STAT3 promoter (LNcaP stable cell line [plasmid STAT3-TA-luc])—which was prepared to evaluate the inhibitory effect of the compounds of the Examples against dimerization of STAT3—was cultured in RPMI1640 (Cat no. 11875, Gibco), 10% fetal bovine serum (Cat no. SH30071.03, Hyclone) and 150 μg/mL G418 solution (Cat no. 04 727 894 001, Roche).
The reporter gene assay of LNcap stable cell line was carried out by the use of RPMI 1640 medium containing 3% DCC-FBS (without G-418). The cell line was dispensed into two (2) white 96-well plates at 30,000 cells/well/50 μL. The cell line was incubated for 24 hours under the condition of 37° C. and 5% CO2, and then the Example compounds of 50 mM DMSO stock were diluted to various concentrations and treated to two (2) white 96-well plates containing cells. Then, IL-6 was treated to a final concentration of 10 ng/mL. After the treatment of Example compounds and IL-6, the cells were cultured for 48 hours under the condition of 37° C. and 5% CO2. After 48 hours, the 96-well plates were observed under a microscope to record the presence or absence of drug precipitation and specificities, and the 96-well plates were kept at room temperature for 30 minutes. Then, in the case of the first 96-well plate, the culture medium on the plate was removed to measure the luciferase activity, and treated with passive lysis buffer at 20 µL/well and shaken for 30 minutes. The luciferase activity was measured on microLUMA LB96P (BERTHOLD) or Centro XS LB 960 (BERTHOLD) instrument using Luciferase assay system (Cat No. E1501, Promega Corporation). In the case of the second 96-well plate, 20 μL of Glo-mix solution was added to measure cytotoxicity by the compounds of the Examples, and the plate was well shaken for 10 minutes and analyzed on microLUMA LB96P (BERTHOLD) instrument using Glo-vial protocol. As a negative control, a 96 well-plate in which culture medium was added but cells were not plated was used. As a positive control, a 96 well-plate in which cells were plated and 0.1% DMSO and culture medium containing stimulation were added was used.
The results of evaluating the inhibitory effects of the compounds of the Examples against dimerization of STAT3 and STAT1 via STAT3 and STAT1 reporter gene assay are represented in Table 1.

[1] = system: prostate cancer cell line (LNCap); experiment: Cell growth inhibition assay (Celltiter Glo); assay type: cell-based; settings: Homo sapiens, LNCap cells, 120 hours incubation
Description: Cancer cell inhibitory effects by the compounds of the Examples were evaluated as follows. The prostate cancer cell line (LNCap) used was cultured under the condition according to the vendor's recommendation. LNCap was dispensed into a 96-well plate at 10,000 cells/well. After incubation under the condition of 37° C. and 5% CO2 for 24 hours, the Example compounds of 50 mM DMSO stock were diluted to various concentrations and treated to the 96-well plate containing cells. After treatment of the Example compounds, LNCap cells were incubated in an incubator (37° C., 5% CO2) for 120 hours. After each incubation time, the 96-well plate was observed under a microscope to record the presence or absence of drug precipitation and specificities, and the 96-well plate was kept at room temperature for 30 minutes. Then, after addition of 20 μL of Celltiter Glo solution, the 96-well plate was well shaken for 30 minutes. The growth inhibitory activity was measured on microLUMA LB96P (BERTHOLD) instrument using Glo-vial protocol. As a negative control, a 96 well-plate in which culture medium was added but cells were not plated was used. As a positive control, a 96 well-plate in which cells were plated and 0.1% DMSO instead of drugs was added was used. The results of growth inhibitory effects of the Example compounds on prostate cancer cell line are represented in Table 2.

T1 sequence (P40763 whole entry): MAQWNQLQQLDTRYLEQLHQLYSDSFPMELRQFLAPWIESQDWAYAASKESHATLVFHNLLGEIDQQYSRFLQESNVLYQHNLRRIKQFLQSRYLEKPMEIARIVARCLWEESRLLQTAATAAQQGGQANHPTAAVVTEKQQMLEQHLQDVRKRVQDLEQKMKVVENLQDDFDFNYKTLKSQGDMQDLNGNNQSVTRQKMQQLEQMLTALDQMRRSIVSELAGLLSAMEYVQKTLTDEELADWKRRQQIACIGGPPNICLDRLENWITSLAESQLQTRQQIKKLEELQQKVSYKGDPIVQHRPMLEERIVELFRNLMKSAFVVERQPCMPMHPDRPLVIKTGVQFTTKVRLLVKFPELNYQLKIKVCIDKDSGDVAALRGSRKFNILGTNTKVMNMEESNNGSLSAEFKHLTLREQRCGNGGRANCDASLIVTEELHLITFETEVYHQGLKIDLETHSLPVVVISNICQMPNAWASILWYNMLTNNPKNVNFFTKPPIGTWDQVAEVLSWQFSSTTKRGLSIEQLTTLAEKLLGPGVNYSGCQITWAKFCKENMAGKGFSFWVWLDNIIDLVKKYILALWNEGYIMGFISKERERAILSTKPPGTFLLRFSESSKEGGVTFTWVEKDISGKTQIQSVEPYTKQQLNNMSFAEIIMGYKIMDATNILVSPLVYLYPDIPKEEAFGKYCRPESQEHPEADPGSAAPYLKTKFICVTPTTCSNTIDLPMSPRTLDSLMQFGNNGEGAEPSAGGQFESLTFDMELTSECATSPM

SMILES | IC50 (STAT3) [µM] | IC50 [1] [µM]
CS(=O)(=O)Nc1ccc(CCNc2cncc3ccccc23)cc1 [Example 63, N-(4-(2-(isoquinolin-4-ylamino)ethyl)phenyl)methanesulfonamide] | 0.75 | 1.9
CS(=O)(=O)Nc1ccc(CCNc2ncnc3ccc(F)cc23)cc1 [Example 64, N-(4-(2-((6-fluoroquinazolin-4-yl)amino)ethyl)phenyl)methanesulfonamide] | 0.063 | 0.23
CS(=O)(=O)Nc1ccc(CCNc2ncnc3ccsc23)cc1 [Example 66, N-(4-(2-(thieno[3,2-d]pyrimidin-4-ylamino)ethyl)phenyl)methanesulfonamide] | 0.74 | 0.71
CS(=O)(=O)Nc1ccc(CCNc2ncnc3sccc23)cc1 [Example 68, N-(4-(2-(thieno[2,3-d]pyrimidin-4-ylamino)ethyl)phenyl)methanesulfonamide] | 0.076 | 0.27
CS(=O)(=O)Nc1ccc(CCNc2ncnc3scnc23)cc1 [Example 69, N-(4-(2-(thiazolo[5,4-d]pyrimidin-7-ylamino)ethyl)phenyl)methanesulfonamide] | 0.046 | 0.13
CS(=O)(=O)Nc1ccc(CCNc2ncnc3[nH]ccc23)cc1 [Example 70, N-(4-(2-((7H-pyrrolo[2,3-d]pyrimidin-4-yl)amino)ethyl)phenyl)methanesulfonamide] | 3.8 | 10.8
CS(=O)(=O)Nc1ccc(CCNc2nccc3nccnc23)cc1 [Example 71, N-(4-(2-(pyrido[3,4-b]pyrazin-5-ylamino)ethyl)phenyl)methanesulfonamide] | 9.6 | 20.9
Cc1cnc2ccccc2c1NCCc1ccc(NS(C)(=O)=O)cc1 [Example 72, N-(4-(2-((3-methylquinolin-4-yl)amino)ethyl)phenyl)methanesulfonamide] | 0.62 | 1.4
COc1cc(NCCc2ccc(NS(C)(=O)=O)cc2)c2ccccc2n1 [Example 76, N-(4-(2-((2-methoxyquinolin-4-yl)amino)ethyl)phenyl)methanesulfonamide] | 1.2 | 3.9

Second part, the compound after the results:

IC50 (STAT3) [µM] | IC50 [1] [µM] | SMILES
> 50 | > 50 | O=C(Cc1ccc([N+](=O)[O-])cc1)Nc1ncnc2ccccc12 [Example 65, 2-(4-nitrophenyl)-N-(quinazolin-4-yl)acetamide]
4.4 | 3.7 | O=[N+]([O-])c1ccc(CCNc2nc(Cl)nc3ncccc23)cc1 [Example 67, 2-chloro-N-(4-nitrophenethyl)pyrido[2,3-d]pyrimidin-4-amine]
35.9 | 33 | CS(=O)(=O)Nc1ccc(CCNc2nccc3occc23)cc1 [Example 73, N-(4-(2-(furo[3,2-c]pyridin-4-ylamino)ethyl)phenyl)methanesulfonamide]
3.9 | 13.1 | CS(=O)(=O)Nc1ccc(CCNc2ncc(Cl)c3ccccc23)cc1 [Example 74, N-(4-(2-((4-chloroisoquinolin-1-yl)amino)ethyl)phenyl)methanesulfonamide]
4.3 | 6 | CS(=O)(=O)Nc1ccc(CCNc2nccc3ccccc23)cc1 [Example 75, N-(4-(2-(isoquinolin-1-ylamino)ethyl)phenyl)methanesulfonamide]
